As usually defined, the MIC is the least concentration at which growth counts as inhibited. A higher MIC goes with a need for much substance. For orientation: LD50 means the dose expected to kill half of the subjects tested. High values mean a less toxic substance, low ones a more toxic substance.

Values after ≈ are worked out from the molar mass of the structure shown.

For data set [1], the system named is Mycobacterium tuberculosis. Nature of the data set: Antimycobacterial activity against Mycobacterium tuberculosis H37Rv after […] by microbroth dilution method. It counts as functional.
In data set [2] the test system is Mycobacterium avium. Nature of the data set: Antimycobacterial activity against Mycobacterium avium after […] by microbroth dilution method. It counts as functional. (In general: Broth dilution looks for growth in wells or tubes with falling amounts of substance.)
Data set [3] relates to Mycolicibacter terrae. The data set can be described thus: Antimycobacterial activity against Mycobacterium terrae after […] by microbroth dilution method. The class given is functional.
A short description of data set [4]: Acute toxicity in po dosed mouse administered as single dose measured after 14 days. It counts as organism-based. To be noted: in vivo.
Data set [5] in a line: Acute toxicity in po dosed mouse. It counts as organism-based. The settings on record: in vivo.

For `FC(F)(F)c1ccc(-c2cncnc2-c2ccco2)c(C(F)(F)F)c1`, the MIC in data set [1] was found to be 1.95 µM (≈ 0.699 µg/mL); in data set [2], 1.95 µM (≈ 0.699 µg/mL); in data set [3] it was 0.98 µM (≈ 0.351 µg/mL). In data set [4], this compound registered a 50% lethal dose (LD50) at 336 h of 600 mg/kg.
In the case of `Fc1ccccc1-c1cncnc1`, the MIC in data set [1], in data set [2] and in data set [3] was 71.8 µM (≈ 12.5 µg/mL) throughout.
As to `Fc1cc(F)cc(-c2cncnc2-c2ccco2)c1`, the minimum inhibitory concentration (MIC) in data set [1], in data set [2] and in data set [3] was 24 µM (≈ 6.2 µg/mL) each time.
As for `Fc1ccc(-c2cncnc2-c2cccs2)c(F)c1`, the minimal inhibitory concentration (MIC) in data set [1], in data set [2] and in data set [3] was 45.6 µM (≈ 12.5 µg/mL) throughout.
As for `Fc1cccc(-c2cncnc2-c2cccs2)c1`, the values for the minimum inhibitory concentration (MIC) in data set [1], in data set [2] and in data set [3] were 48.8 µM (≈ 12.5 µg/mL), 12.5 µM (≈ 3.2 µg/mL) and 12.5 µM (≈ 3.2 µg/mL), respectively.
On to `FC(F)(F)c1ccc(-c2cncnc2-c2ccco2)cc1`, for which the minimum inhibitory concentration (MIC) in data set [1], in data set [2] and in data set [3] was 43.1 µM (≈ 12.5 µg/mL) each time.
Regarding `Fc1ccc(-c2cncnc2-c2ccco2)c(F)c1`, the minimum inhibitory concentration (MIC) in data set [1], in data set [2] and in data set [3] was 48.4 µM (≈ 12.5 µg/mL) each time.
In the case of `FC(F)(F)c1ccc(-c2cncnc2)cc1`, the minimal inhibitory concentration (MIC) in data set [1], in data set [2] and in data set [3] was 55.8 µM (≈ 12.5 µg/mL) in each case.
As for `Fc1ccc(-c2cncnc2-c2ccco2)cc1`, the MIC in data set [1], in data set [2] and in data set [3] was 52 µM (≈ 12.5 µg/mL) throughout.
On to `FC(F)(F)c1cc(-c2cncnc2-c2ccco2)cc(C(F)(F)F)c1`, for which the MIC in data set [1], in data set [2] and in data set [3] was 8.65 µM (≈ 3.1 µg/mL) in each case.
As to `Fc1ccc(-c2cncnc2)c(F)c1`, the MIC in data set [1], in data set [2] and in data set [3] was 16.1 µM (≈ 3.1 µg/mL) in each case.
With `FC(F)(F)c1ccccc1-c1cncnc1-c1cccs1`, the MIC in data set [1], in data set [2] and in data set [3] was 20.2 µM (≈ 6.2 µg/mL) in each case.
Take `c1ccc(-c2cncnc2-c2cccs2)cc1`: the MIC in data set [1], in data set [2] and in data set [3] was 26 µM (≈ 6.2 µg/mL) in each case.
As for `FC(F)(F)c1ccc(-c2cncnc2-c2cccs2)cc1`, the MIC in data set [1], in data set [2] and in data set [3] was 40.8 µM (≈ 12.5 µg/mL) each time.
`FC(F)(F)c1cccc(-c2cncnc2-c2cccs2)c1`: the MIC in data set [1], in data set [2] and in data set [3] was 4.9 µM (≈ 1.5 µg/mL) in each case.
In the case of `FC(F)(F)c1cccc(-c2cncnc2)c1`, the MIC in data set [1], in data set [2] and in data set [3] was 55.8 µM (≈ 12.5 µg/mL) each time.
Consider `Fc1ccc(-c2cncnc2-c2cccs2)cc1`, for which the minimal inhibitory concentration (MIC) in data set [1] came to 48.8 µM (≈ 12.5 µg/mL); in data set [2], 12.5 µM (≈ 3.2 µg/mL); in data set [3] it was 12.5 µM (≈ 3.2 µg/mL).
With `Fc1cccc(-c2cncnc2-c2ccco2)c1`, the minimal inhibitory concentration (MIC) in data set [1], in data set [2] and in data set [3] was 6.24 µM (≈ 1.5 µg/mL) throughout.
As to `Fc1cc(F)cc(-c2cncnc2-c2cccs2)c1`, the minimum inhibitory concentration (MIC) in data set [1], in data set [2] and in data set [3] was 45.6 µM (≈ 12.5 µg/mL) each time.
Consider `FC(F)(F)c1ccccc1-c1cncnc1`, for which the MIC in data set [1], in data set [2] and in data set [3] was 27.7 µM (≈ 6.2 µg/mL) in each case.
As to `Fc1cccc(-c2cncnc2)c1`, the MIC in data set [1], in data set [2] and in data set [3] was 35.9 µM (≈ 6.25 µg/mL) each time.
On to `FC(F)(F)c1ccc(-c2cncnc2-c2cccs2)c(C(F)(F)F)c1`, for which the MIC in data set [1], in data set [2] and in data set [3] was 16.6 µM (≈ 6.2 µg/mL) in each case.
Take `Fc1cc(F)cc(-c2cncnc2)c1`: the MIC in data set [1], in data set [2] and in data set [3] was 3.64 µM (≈ 0.699 µg/mL) each time. Further, the LD50 at 336 h in data set [4] stood at 300 mg/kg.
As for `Fc1ccccc1-c1cncnc1-c1ccco1`, the minimum inhibitory concentration (MIC) in data set [1], in data set [2] and in data set [3] was 52 µM (≈ 12.5 µg/mL) in each case.
In the case of `c1ccc(-c2cncnc2)cc1`, the minimal inhibitory concentration (MIC) in data set [1], in data set [2] and in data set [3] was 80 µM (≈ 12.5 µg/mL) each time.
As for `Fc1ccccc1-c1cncnc1-c1cccs1`, the minimum inhibitory concentration (MIC) in data set [1] is 48.8 µM (≈ 12.5 µg/mL); in data set [2] it was 12.5 µM (≈ 3.2 µg/mL); in data set [3] it was 12.5 µM (≈ 3.2 µg/mL).
With `FC(F)(F)c1ccccc1-c1cncnc1-c1ccco1`, the MIC in data set [1], in data set [2] and in data set [3] was 43.1 µM (≈ 12.5 µg/mL) in each case.
`CC1COc2c(N3CCN(C)CC3)c(F)cc3c(=O)c(C(=O)O)cn1c23` (stereo not given) [OFLOXACIN]: the MIC in data set [1], in data set [2] and in data set [3] was 0.28 µM (≈ 0.101 µg/mL) throughout. The compound also had an LD50 in data set [5] of 5450 mg/kg.
Turning to `c1ccc(-c2cncnc2-c2ccco2)cc1`, the minimum inhibitory concentration (MIC) in data set [1], in data set [2] and in data set [3] was 1.57 µM (≈ 0.349 µg/mL) in each case. This compound also registered an LD50 at 336 h in data set [4] of 150 mg/kg.
In the case of `Fc1ccc(-c2cncnc2)cc1`, the minimum inhibitory concentration (MIC) in data set [1], in data set [2] and in data set [3] was 71.8 µM (≈ 12.5 µg/mL) in each case.
As for `FC(F)(F)c1cccc(-c2cncnc2-c2ccco2)c1`, the minimum inhibitory concentration (MIC) in data set [1], in data set [2] and in data set [3] was 43.1 µM (≈ 12.5 µg/mL) in each case.
For the compound `NNC(=O)c1ccncc1` [ISONIAZID], the MIC in data set [1], in data set [2] and in data set [3] was 0.73 µM (≈ 0.1 µg/mL) in each case.
In data set [1], `NC(=O)c1cnccn1` [PYRAZINAMIDE] yielded an MIC of 102 µM (≈ 12.5 µg/mL).
For the compound `FC(F)(F)c1cc(-c2cncnc2-c2cccs2)cc(C(F)(F)F)c1`, the MIC in data set [1], in data set [2] and in data set [3] was 33.4 µM (≈ 12.5 µg/mL) throughout.
Take `FC(F)(F)c1cc(-c2cncnc2)cc(C(F)(F)F)c1`: the minimum inhibitory concentration (MIC) in data set [1], in data set [2] and in data set [3] was 5.13 µM (≈ 1.5 µg/mL) throughout.
On to `FC(F)(F)c1ccc(-c2cncnc2)c(C(F)(F)F)c1`, for which the MIC in data set [1], in data set [2] and in data set [3] was 42.8 µM (≈ 12.5 µg/mL) each time.
